The record followed here is patent US6043212A, “Recombinant C140 receptor, its agonists and antagonists, and nucleic acids encoding the receptor” (COR Therapeutics, Inc., priority 1995, dated 2000).

Assay [1] concerns the target T1, mutant C140 receptor 35Pro (serine-35 replaced with proline) (Mus musculus, UniProt P55086, S39P).
T1 construct: Site-directed mutagenesis was employed to construct mutant receptors in the pSG-5; expressed in transfected cells; host or cells: Xenopus laevis oocytes injected with capped cRNA
T1 sequence (P55086 32-399 S39P limits assumed): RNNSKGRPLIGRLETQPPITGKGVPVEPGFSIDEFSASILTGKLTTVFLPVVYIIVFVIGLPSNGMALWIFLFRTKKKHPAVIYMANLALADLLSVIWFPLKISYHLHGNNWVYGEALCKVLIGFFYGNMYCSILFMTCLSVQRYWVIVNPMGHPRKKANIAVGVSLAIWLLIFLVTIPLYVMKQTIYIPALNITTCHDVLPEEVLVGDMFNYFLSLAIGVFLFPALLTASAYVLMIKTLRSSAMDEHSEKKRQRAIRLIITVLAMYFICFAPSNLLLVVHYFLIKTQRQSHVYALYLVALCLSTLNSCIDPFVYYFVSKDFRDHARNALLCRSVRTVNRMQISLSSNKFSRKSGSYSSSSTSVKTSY
Briefly: 45Ca release by Xenopus oocytes expressing mutant C140 receptor 35Pro. As to conditions: 35Pro receptor. It is filed as cell-based. The text has this:
(§1) Both native and mutant C140 receptors were produced in oocytes and activated with a peptide mimicking the new amino-terminus", or by the proteolytic enzyme trypsin (which cleaves the extracellular region). Native receptors were produced by cloning the coding region of the receptor gene, using the polymerase chain reaction, into the expression vector pSG-5 (Green, S. et al., Nucleic Acid Res (1988) 16:369). The orientation and integrity of the cloned coding region was verified by determining the nucleotide sequence with the Sanger chain-termination method. Site-directed mutagenesis was employed to construct mutant receptors in the pSG-5. […]
(§2) Oocytes from Xenopus laevis were harvested and prepared using published techniques (Coleman, A., in Hames, B. D., and Higgins, S. J., eds, Transcription and Translation: A Practical Approach, IRL Press, pp. 271-302; Williams, J. A., et al. Proc Natl Acad Sci USA (1988) 85:4939-4943]. To remove follicular cells, oocytes were incubated for 1.5 h with shaking in calcium-free Barth's containing 2 mg/ml each of collagenase 1A and hyaluronidase 1S. The oocytes were then washed five times in regular Barth's and incubated at 18° C. in Barth's medium containing 100 U/ml penicillin, 100 μg/ml streptomycin, and 2.5 mM sodium pyruvate. […] The harvested medium was analyzed by scintillation counting. […]

In assay [2] the target is T2, mutant C140 receptor 35His (serine-35 replaced with histidine) (Mus musculus, UniProt P55086, S39H).
T2 construct: Site-directed mutagenesis was employed to construct mutant receptors in the pSG-5; expressed in transfected cells; host or cells: Xenopus laevis oocytes injected with capped cRNA
T2 sequence (P55086 32-399 S39H limits assumed): T1 sequence (P55086 32-399 S39P limits assumed) with P8H
Briefly: 45Ca release by Xenopus oocytes expressing mutant C140 receptor 35His. As to conditions: 35His receptor. It is filed as cell-based.
Text: as §1, §2

Setting [3] is: trypsin at 300 pM, increase compared to water-injected oocytes.
The mark [4] stands for this setting: peptide at 100 μM, same oocytes after trypsin stimulation.

Numbering of substitutions follows the chain as printed. Peptide text beside a SMILES is read from it.

For trypsin, the “Fold increase in 45Ca” value in assay [1] (setting [3]) and in assay [2] (setting [3]) was 0 fold throughout.
Consider `CC[C@H](C)[C@H](NC(=O)[C@H](CC(C)C)NC(=O)[C@@H](N)CO)C(=O)NCC(=O)N[C@@H](CCCNC(=N)N)C(=O)N[C@@H](CC(C)C)C(=O)O` [SLIGRL] (H-SLIGRL-OH), for which the “Fold increase in 45Ca” value in assay [1] (setting [4]) and in assay [2] (setting [4]) was 23 fold each time.
